In the supplement of paper PMC3937590:

Assays:
Test in all cases: -log10 GI50 (growth inhibition 50%) (-log10(M)); higher = more potent growth inhibition
[1] = tested on: MCF12A
Outline: (§1)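 Breast cancer cell lines were treated with each compound for 72 hours at nine doses in 1:5 serial dilution, in triplicate, and luminescence was read against a time-zero plate. A Gompertz curve was fitted to the dose-response data by nonlinear least squares to obtain GI50, the molar concentration giving the set level of growth inhibition, which is reported as its negative logarithm. The logarithm is base 10, and values equal to the top dose carry a < qualifier.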

[2] = tested on: ZR751
Outline: as §1

[3] = tested on: MDAMB415
Outline: as §1

[4] = tested on: HCC1395
Outline: as §1

[5] = tested on: HCC1187
Outline: as §1

[6] = tested on: MCF10F
Outline: as §1

[7] = tested on: 184A1
Outline: as §1

[8] = tested on: HCC3153
Outline: as §1

[9] = tested on: SUM52PE
Outline: as §1

[10] = tested on: T47D
Outline: as §1

[11] = tested on: SUM185PE
Outline: as §1

[12] = tested on: UACC812
Outline: as §1

[13] = tested on: 184B5
Outline: as §1

[14] = tested on: MDAMB453
Outline: as §1

[15] = tested on: SUM1315MO2
Outline: as §1

[16] = tested on: HS578T
Outline: as §1

[17] = tested on: SUM149PT
Outline: as §1

[18] = tested on: MX1
Outline: as §1

[19] = tested on: CAMA1
Outline: as §1

[20] = tested on: BT483
Outline: as §1

-log10 GI50 [3] | -log10 GI50 [4] | -log10 GI50 [5] | -log10 GI50 [8] | -log10 GI50 [10] | -log10 GI50 [14] | -log10 GI50 [20] | SMILES | -log10 GI50 [1] | -log10 GI50 [2] | -log10 GI50 [6] | -log10 GI50 [7] | -log10 GI50 [9] | -log10 GI50 [11] | -log10 GI50 [12] | -log10 GI50 [13] | -log10 GI50 [15] | -log10 GI50 [16] | -log10 GI50 [17] | -log10 GI50 [18] | -log10 GI50 [19]
4.9 | < 4.18 | 5.48 | 4.37 | 4.91 | 4.59 |  | CCC[C@H](N[C@H]1CCc2cc(F)cc(F)c2C1)C(=O)Nc1cn(C(C)(C)CNCC(C)(C)C)cn1 | < 4.18 | 4.72 | < 4.18 | 5.87 | 5.24 | 4.84 | < 4.18 | 4.86 | 4.65 | 4.51 | 6.88 | 5.76 | < 4.18
6.63 | 6.3 | 6.15 | 6.72 | 6.97 | 6.28 | 6.25 | CCNCCCCNCCCCNCCCCNCCCCNC/C=C/CNCCCCNCCCCNCCCCNCCCCNCC | 6.2 | 6.82 | 5.96 | 6.32 | 6.81 | 6.68 | 6.78 | 5.62 | 5.69 | 4.93 | 6.53 | 6.57 | 6.43
5.32 | 5.33 | 5.65 | 5.39 | 5.02 | 4.96 | 5.49 | CNC(=O)c1c(F)cccc1Nc1nc(Nc2cc3c(cc2OC)CCN3C(=O)CN(C)C)nc2[nH]ccc12 | 5.74 | 5.17 | 6.31 | 6.4 | 5.68 | 5.48 | 5.31 | 6.32 | 5.1 | 4.91 | 5.41 | 5.29 | 5.08
5.45 | 5.3 | 6.39 | < 4 | 4.94 | < 4.3 | 4.56 | COc1cc2c(Nc3ccc(NC(=O)c4ccccc4)cc3)ncnc2cc1OCCCN1CCOCC1 | 5.12 | 5.47 | < 4 | < 4.3 | 5.46 | 4.5 | 5.41 | < 4.3 | < 4.3 | 5.88 | < 4 | 6.35 | 5.02
7.08 | 7.02 | 8.01 | 4.87 | 7.27 | 6.88 |  | COc1ccc(-c2cc3c(C)nc(N)nc3n([C@H]3CC[C@H](OCCO)CC3)c2=O)cn1 | 6.39 | 7.62 | 6.8 | 6.96 | 7.26 | 6.77 | 7.74 | 6.65 | 7.06 | 5.26 | 7.08 | 7.41 | 6.74
5.86 | 7.31 | 8.3 | 7.38 | 8.45 | 8.33 | 8.94 | COc1ncc(-c2ccc3nccc(-c4ccnnc4)c3c2)cc1NS(=O)(=O)c1ccc(F)cc1F | 8.09 | 8.09 | 8.67 | 8.77 | 8.46 |  | 8.49 | 8.23 | 8.02 | 7.13 | 7.64 | 8.39 | 7.08
5.69 | 5.37 | 7.24 | 5.16 | 5.34 | 5.59 |  | C[C@@H](Oc1cc(-c2cnn(C3CCNCC3)c2)cnc1N)c1c(Cl)ccc(F)c1Cl | 5.38 | 5.44 | 5.61 | 5.78 | 6.28 | 5.33 | 5.02 | 5.42 | 5.24 | 5.85 | 5.7 | 5.84 | 5.23
7.24 |  | 8.02 | 6.12 | 7.35 | 7.2 |  | Cn1ncc(Cl)c1-c1cc(C(=O)N[C@H](CN)Cc2ccc(F)c(F)c2)oc1Cl | 5.57 | 8.26 | 5.45 |  | 6.3 | 6.28 | 7.18 |  | 5.01 | 5.58 | 7.42 | 8.11 | 7.02
< 4 | 4.56 | 4.7 | < 4.48 | < 4.48 | < 4 | 4.45 | Nc1[nH]nc2nnc(-c3c(-c4ccccc4)nn4ccccc34)cc12 | < 4 | 5.23 | 4.09 | 4.61 | 4.49 | 4.43 | 4.56 | 4.89 | 4.71 | < 4.48 | 4.73 | < 4.48 | < 4
< 4.48 | < 4.18 |  | < 4.48 | < 4.48 | < 4.18 | < 4.48 | O=C(O)c1ccc(-c2c[nH]c3ncc(-c4ccccc4)cc23)cc1C1CCCC1 | 5.13 | < 4.18 | 4.59 | 5.95 | < 4.48 | 4.79 | < 4.18 | 5.97 | 6.1 |  | < 4.18 | 4.45 | < 4.18
4.59 | 4.82 | 5.07 | < 4.48 | < 4.48 | < 4.48 | 4.84 | Oc1cc(-c2nc(-c3ccccc3)[nH]c2-c2ccncc2)ccc1Cl | 4.97 | 4.59 | 4.92 | 5.06 | 5.13 | 5.19 | 4.9 | 5.45 | 4.69 | 4.69 | 5.14 | 4.98 | 4.4
6.79 | < 4.48 | < 4.48 | 6.19 | 6.55 | 6.92 | 5.87 | Cn1c(=O)n(-c2ccc(C(C)(C)C#N)cc2)c2c3cc(-c4cnc5ccccc5c4)ccc3ncc21 [BEZ235] | 6.33 | 5.74 | < 4.48 | 7.19 | 5.51 | < 4.48 | 5.69 |  | 6.49 | < 4.48 | 6.5 | < 4.48 | 6.67
5.86 | 5.93 |  |  |  | 7.04 | 5.78 | CN(C)C/C=C/C(=O)Nc1cc2c(Nc3ccc(F)c(Cl)c3)ncnc2cc1O[C@H]1CCOC1 [BIBW2992] | 7.06 | 5.63 | 7.01 | 7.74 | 5.47 | 5.46 | 8.55 | 7.22 | 6.79 |  | 7.13 | 6.58 | 5.65
< 3.78 | 4.73 | 4.94 | 4.69 | 4.52 | 3.8 | 4.44 | O=c1cc(-c2ccccc2)oc2cc(O)c(O)c(O)c12 [Baicalein] | 4.78 | 4.38 | < 3.78 | < 3.78 | 4.42 |  | 4.19 | < 3.78 | 4.55 | 4.32 | 4.29 | 4.66 | 4.39
4.89 | < 4.18 | 6.49 | 5.13 | 7.01 | 6.84 | 4.18 | CCN(CC)C(=S)SSC(=S)N(CC)CC [Disulfiram] | 4.97 |  | < 4.18 | 4.9 | 4.53 | < 4.18 | 7.03 | 4.93 | 6.36 | 5.44 |  | 4.54 | 4.85
8.12 | 4.98 |  | 4.85 | 5.92 | 7.59 | 5.55 | CO[C@H]1C[C@@H]2CC[C@@H](C)[C@@](O)(O2)C(=O)C(=O)N2CCCC[C@H]2C(=O)O[C@H]([C@H](C)C[C@@H]2CC[C@@H](OCCO)[C@H](OC)C2)CC(=O)[C@H](C)/C=C(\C)[C@@H](O)[C@@H](OC)C(=O)[C@H](C)C[C@H](C)/C=C/C=C/C=C/1C [Everolimus] | 4.87 | 7.55 | 6 | 6.16 | 7.73 | 5.8 | 7.49 | 5.55 | 5.23 |  | 5.42 | 5.33 | 8.15
< 4.18 | < 4.18 | < 4.48 | < 4.48 | < 4.48 | < 4.18 | < 4.48 | CSCC[C@H](NC(=O)[C@H](Cc1ccccc1)NC[C@@H](NC[C@@H](N)CS)C(C)C)C(=O)O [FTase inhibitor I] | < 4.18 | < 4.18 | < 4.48 | < 4.18 | 4.93 |  | < 4.48 | < 4.18 | < 4.18 | < 4.48 | 4.76 | < 4.48 | < 4.48
4.5 | 3.51 | 3.81 | 3.11 | 3.48 | 5.79 | 4.15 | O=c1[nH]c(=O)n([C@H]2C[C@H](O)[C@@H](CO)O2)cc1F [Floxuridine] | 4.86 | 5.55 | 4.34 | 3.67 | 3.45 |  | 4.11 | 3.65 | 3.18 | 3.52 | 4.12 | 2.84 | 4.36
4.29 | 4.89 | 3.77 | 4.05 | 4.46 | 3.97 | 4.24 | CCCCCN(C)CCC(O)(P(=O)(O)O)P(=O)(O)O [Ibandronate sodium] | 3.73 | 4.16 | 3.81 | 3.81 | 4.47 |  | 3.83 | 3.62 | 4.29 | 5.03 | 3.76 | 3.94 | 3.82
8.69 | 4.84 | 7.78 | 5.25 | 6.36 | 7.31 | 8.78 | CO[C@H]1C[C@@H]2CC[C@@H](C)[C@@](O)(O2)C(=O)C(=O)N2CCCC[C@H]2C(=O)O[C@H]([C@H](C)C[C@@H]2CC[C@@H](O)[C@H](OC)C2)CC(=O)[C@H](C)/C=C(\C)[C@@H](O)[C@@H](OC)C(=O)[C@H](C)C[C@H](C)/C=C/C=C/C=C/1C [Rapamycin] | 7.08 |  | 5.44 | 6.72 | 8.52 | 6.04 | 7.33 | < 4.48 | 5.56 | 4.35 | 5.03 | 5.77 | 7.82
8.36 | 4.83 | 6.1 | 4.63 | 5.85 |  | 6.57 | CO[C@H]1C[C@@H]2CC[C@@H](C)[C@@](O)(O2)C(=O)C(=O)N2CCCC[C@H]2C(=O)O[C@H]([C@H](C)C[C@@H]2CC[C@@H](OC(=O)C(C)(CO)CO)[C@H](OC)C2)CC(=O)[C@H](C)/C=C(\C)[C@@H](O)[C@@H](OC)C(=O)[C@H](C)C[C@H](C)/C=C/C=C/C=C/1C [Temsirolimus] | 5.03 | < 3.88 | 6.11 | 6.3 | 8.82 | < 3.88 | 6.21 | 5.29 | 6.06 | 4.66 | 5.21 | 5.45 | 
6.2 | 6.03 | 6.05 | 5.74 | 5.41 | 6.01 | 5.23 | Cc1cc(C(=O)N2CCN(c3cccc(Cl)c3)CC2)n(-c2ccccc2)n1 [XRP44X] | 6.67 | 5.91 | < 3.88 | 6.5 | 6.06 |  | 6.15 | 6.55 | 6.14 | 6 | 5.88 | 6.04 | 6.01
